Experimental data taken from patent publication US20220204495A1, “INHIBITING TRABID” (Valo Health, Inc., priority 2019, published 2022).

The molecules below were run against T1, TRABID(245-697) (Homo sapiens, UniProt Q9UGI0) (assay: TRABID inhibition biochemical assay (Ub-Rh110MP fluorescence)). Details: 10 nM TRABID(245-697), 25 nM Ub-Rh110MP, 30 minutes preincubation with compound, 10-point 3-fold series 26.6 μM to 1.35 nM.
T1 construct: 10 nM TRABID(245-697) and 25 nM Ub-Rh110MP (UbiQ, UbiQ-126) final concentrations
T1 sequence (Q9UGI0 245-697): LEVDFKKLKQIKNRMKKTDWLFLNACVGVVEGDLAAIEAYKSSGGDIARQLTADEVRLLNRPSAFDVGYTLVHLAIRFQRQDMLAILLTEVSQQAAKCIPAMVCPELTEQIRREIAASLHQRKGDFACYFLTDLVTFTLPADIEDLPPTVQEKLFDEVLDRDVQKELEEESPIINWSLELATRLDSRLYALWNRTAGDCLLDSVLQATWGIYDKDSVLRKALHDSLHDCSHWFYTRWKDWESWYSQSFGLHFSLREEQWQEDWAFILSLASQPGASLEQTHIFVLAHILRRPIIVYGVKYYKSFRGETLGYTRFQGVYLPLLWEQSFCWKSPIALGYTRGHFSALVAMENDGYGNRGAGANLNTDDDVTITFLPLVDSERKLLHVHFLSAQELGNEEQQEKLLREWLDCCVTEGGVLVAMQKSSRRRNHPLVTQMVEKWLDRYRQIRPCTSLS
Experimental: TRABID enzymatic assays were performed in a final volume of 6 μL in buffer containing 20 mM Tris-HCl pH 8.0, (Corning 46-031-CM), and 1 mM GSH (Sigma, G4251), 0.03% BGG (Sigma, G7516), and 0.01% Triton X-100 (Sigma, 93443). Test compounds were serially diluted in DMSO (Sigma, G7516) to obtain 10-point, 3-fold series. Nanoliter quantities were pre-dispensed into 1536 assay plates (Corning, 9110BC) for the concentration response range, 26.6 μM to 1.35 nM. 3 μL of 2× enzyme was added to the assay plates, preincubated with compound for 30 minutes and then 3 μL of 2× substrate was added to initiate the reaction (10 nM TRABID(245-697) and 25 nM Ub-Rh110MP (UbiQ, UbiQ-126) final concentrations). Enzyme and substrate concentrations and incubation times were optimized for the maximal signal-to-background while maintaining linear initial velocity conditions at a fixed substrate concentration below Km.
Fluorescence signal was measured on an EnVision Plate Reader (PerkinElmer) equipped with 485 nm excitation filter and 535 nm emission filters.
Rates were calculated by: rate=((final FLU−initial FLU)/600 seconds) where final FLU=fluorescence at time 10 minutes, initial FLU=fluorescence at time 0 minutes and 600=duration of reaction in seconds.
Data were reported as percent inhibition compared with control wells based on the following equation: % inh=[…] where rate=measured rate of fluorescence generated during assay, AveLow=average rate of no enzyme control (n=32), and AveHigh=average rate of DMSO control (n=32).
IC50 values were determined by curve fitting of the standard 4 parameter logistic fitting algorithm included in the Activity Base software package (IDBS) using XE Designer equation Model 205. Data were fitted using the Levenburg Marquardt algorithm.
With CN(C(=O)c1cnc(-c2ccccc2)s1)[C@H]1C[C@H](CNC#N)C1 (single isomer, unassigned) [Compound 20, N-methyl-2-phenyl-N-[(trans)-3-[(cyanoamino)methyl]cyclobutyl]-1,3-thiazole-5-carboxamide] the IC50 was 2.95 µM. For N#CN[C@H]1C[C@]2(CCN(C(=O)c3cc(-c4ccccn4)no3)C2)C1 (single isomer, unassigned) [Compound 45, {[(2r,4s)-6-[3-(pyridin-2-yl)-1,2-oxazole-5-carbonyl]-6-azaspiro[3.4]octan-2-yl]amino}formonitrile], the IC50 was 8.1 µM. In the case of N#CNC[C@@H]1CCN(C(=O)c2csc(-c3ccccc3Oc3ccccc3)n2)C1 [Compound 1, cyano([[(3S)-1-[2-(2-phenoxyphenyl)-1,3-thiazole-4-carbonyl]pyrrolidin-3-yl]methyl])amine], the IC50 is reported as 0.14 µM. N#CNC[C@H]1CCN(C(=O)c2csc(-c3ccccc3Oc3ccccc3)n2)C1 [Compound 2, cyano([[(3R)-1-[2-(2-phenoxyphenyl)-1,3-thiazole-4-carbonyl]pyrrolidin-3-yl]methyl])amine] showed an IC50 of 0.439 µM. COc1cccc(-c2ncc(NC(=O)CCCNC#N)s2)c1 [Compound 3, 4-(cyanoamino)-N-[2-(3-methoxyphenyl)-1,3-thiazol-5-yl]butanamide] was tested, and the IC50 was 0.743 µM. Molecule COc1cccc(-c2ncc(NC(=O)[C@H](C)CCNC#N)s2)c1 [Compound 4, (2R)-4-(cyanoamino)-N-[2-(3-methoxyphenyl)-1,3-thiazol-5-yl]-2-methylbutanamide] has an IC50 of 0.85 µM. For COc1cccc(-c2ncc(C(=O)NCCCNC#N)s2)c1 [Compound 5, N-[3-(cyanoamino)propyl]-2-(3-methoxyphenyl)-1,3-thiazole-5-carboxamide], the IC50 was 0.872 µM. COc1cccc(-c2ncc(NC(=O)[C@@H](C)CCNC#N)s2)c1 [Compound 6, (2S)-4-(cyanoamino)-N-[2-(3-methoxyphenyl)-1,3-thiazol-5-yl]-2-methylbutanamide] was tested, and the IC50 was 0.951 µM. In the case of N#CNC1C[C@@]12CCN(C(=O)c1csc(-c3ccc(Cl)cc3Cl)n1)C2 (some centres unmarked) [Compound 7], the IC50 is reported as 1.06 µM. Cn1cc(-c2ccc(-c3cc(NC(=O)CCCNC#N)on3)cc2)cn1 [Compound 8, 4-(cyanoamino)-N-[3-[4-(1-methylpyrazol-4-yl)phenyl]-1,2-oxazol-5-yl]butanamide] gave an IC50 of 1.06 µM. With N#CNCCCC(=O)Nc1cnc(-c2ccccc2Oc2ccccc2)s1 [Compound 9, 4-(cyanoamino)-N-[2-(2-phenoxyphenyl)-1,3-thiazol-5-yl]butanamide] the IC50 was 1.13 µM. COc1ccccc1-c1ncc(NC(=O)CCCNC#N)s1 [Compound 10, 4-(cyanoamino)-N-[2-(2-methoxyphenyl)-1,3-thiazol-5-yl]butanamide] gave an IC50 of 1.16 µM. In the case of N#CNC[C@H]1CCN(C(=O)c2csc(-c3ccc(Cl)cc3Cl)n2)C1 [Compound 11], the IC50 is reported as 1.16 µM. COc1ccccc1-c1nc(C(=O)N2CC[C@@H](CNC#N)C2)cs1 [Compound 12, cyano([[(3S)-1-[2-(2-methoxyphenyl)-1,3-thiazole-4-carbonyl]pyrrolidin-3-yl]methyl])amine] gave an IC50 of 1.25 µM. Cn1cc(-c2ccc(-c3cc(C(=O)N4CCC5(CC(NC#N)C5)C4)on3)cc2)cn1 (centres unmarked) [Compound 13, [(6-[3-[4-(1-methyl-1H-pyrazol-4-yl)phenyl]-1,2-oxazole-5-carbonyl]-6-azaspiro[3.4]octan-2-yl)amino]formonitrile] gave an IC50 of 1.26 µM. Work on COc1ccccc1-c1nc(C(=O)N2CC[C@H](CNC#N)C2)cs1 [Compound 14, cyano([[(3R)-1-[2-(2-methoxyphenyl)-1,3-thiazole-4-carbonyl]pyrrolidin-3-yl]methyl])amine] yielded an IC50 of 1.28 µM. Molecule Cn1cc(-c2ccc(-c3cc(NC(=O)CCNC#N)on3)cc2)cn1 [Compound 15, 3-(cyanoamino)-N-[3-[4-(1-methylpyrazol-4-yl)phenyl]-1,2-oxazol-5-yl]propanamide] has an IC50 of 1.39 µM. Work on N#CNC[C@H]1C[C@H](NC(=O)c2cnc(-c3ccccc3)s2)C1 [Compound 16, 2-phenyl-N-[(trans)-3-[(cyanoamino)methyl]cyclobutyl]-1,3-thiazole-5-carboxamide] yielded an IC50 of 1.58 µM. Work on N#CNCC12CC1CN(C(=O)c1csc(-c3ccc(Cl)cc3Cl)n1)C2 (centres unmarked) [Compound 17] yielded an IC50 of 1.6 µM. C[C@H](CNC#N)C(=O)Nc1cc(-c2ccc(-c3cnn(C)c3)cc2)no1 [Compound 18, (2R)-3-(cyanoamino)-2-methyl-N-[3-[4-(1-methylpyrazol-4-yl)phenyl]-1,2-oxazol-5-yl]propanamide] showed an IC50 of 1.66 µM. For C[C@@H](CNC#N)C(=O)Nc1cc(-c2ccc(-c3cnn(C)c3)cc2)no1 [Compound 19, (2S)-3-(cyanoamino)-2-methyl-N-[3-[4-(1-methylpyrazol-4-yl)phenyl]-1,2-oxazol-5-yl]propanamide], the IC50 was 2.59 µM. COc1cccc(-c2cc(C(=O)N3CC4CC4(CNC#N)C3)on2)c1 (centres unmarked) [Compound 22] showed an IC50 of 3.4 µM. For N#CNC[C@H]1CN(C(=O)c2csc(-c3ccc(Cl)cc3Cl)n2)CCO1 [Compound 24, Cyano({[(2S)-4-[2-(2,4-dichlorophenyl)-1,3-thiazole-4-carbonyl]morpholin-2-yl]methyl})amine], the IC50 was 4 µM. Work on N#CN[C@H]1[C@@H]2CN(C(=O)c3nc(-c4ccccc4)cs3)C[C@@H]21 [Compound 25] yielded an IC50 of 4.41 µM. Work on N#CN[C@H]1[C@@H]2CN(C(=O)c3csc(-c4ccc(Cl)cc4Cl)n3)C[C@@H]21 [Compound 26] yielded an IC50 of 4.53 µM. For N#CNCC1CN(C(=O)c2csc(-c3ccc(Cl)cc3Cl)n2)C1 [Compound 29], the IC50 was 5.16 µM. In the case of COc1ccc(-c2cc(C(=O)N3CC4CC4(CNC#N)C3)on2)cc1 (centres unmarked) [Compound 31], the IC50 is reported as 5.21 µM. Work on N#CNC[C@@H]1CCCN(C(=O)c2csc(-c3ccc(Cl)cc3Cl)n2)C1 [Compound 32] yielded an IC50 of 5.27 µM. With COc1ccc(-c2cc(C(=O)N3CC[C@@]4(CC4NC#N)C3)on2)cc1 (some centres unmarked) [Compound 34] the IC50 was 5.66 µM. Molecule N#CNC1C[C@@]12CCN(C(=O)c1nc(-c3ccccc3)cs1)C2 (some centres unmarked) [Compound 36] has an IC50 of 6.51 µM. COc1cccc(-c2cc(C(=O)N3CC[C@@]4(CC4NC#N)C3)on2)c1 (some centres unmarked) [Compound 38] showed an IC50 of 0.52 µM. For N#CNC[C@H]1CCCN1C(=O)c1csc(-c2ccc(Cl)cc2Cl)n1 [Compound 39], the IC50 was 6.62 µM. N#CN[C@H]1CC[C@@H](NC(=O)c2cccc(Oc3ccccc3)c2)C1 [Compound 40] showed an IC50 of 7.29 µM. COc1ccc(-c2cc(C(=O)N(C)CCCNC#N)on2)cc1 [Compound 41] showed an IC50 of 7.75 µM. COc1cccc(-c2ncc(NC(=O)[C@H](C)CNC#N)s2)c1 [Compound 43, (2R)-3-(cyanoamino)-N-[2-(3-methoxyphenyl)-1,3-thiazol-5-yl]-2-methylpropanamide] was tested, and the IC50 was 7.88 µM. Work on N#CNC1CC2(CCN(C(=O)c3csc(-c4ccc(Cl)cc4Cl)n3)CC2)C1 [Compound 44] yielded an IC50 of 8 µM. N#CNC[C@H]1CCN(C(=O)c2nc(-c3ccccc3)cs2)C1 [Compound 46] showed an IC50 of 8.47 µM. Work on CN(CCCNC#N)C(=O)c1nc(-c2ccccc2)cs1 [Compound 48] yielded an IC50 of 8.74 µM.
